The record followed here is patent publication US20110098180A1, “Herbicide-Resistant Plants, And Polynucleotides And Methods For Providing Same” (United States Department of Agriculture, priority 2002, published 2011).

Sequence of hydrilla PDS Arg^304 → Serine (Q66PY0 1-580 R304S): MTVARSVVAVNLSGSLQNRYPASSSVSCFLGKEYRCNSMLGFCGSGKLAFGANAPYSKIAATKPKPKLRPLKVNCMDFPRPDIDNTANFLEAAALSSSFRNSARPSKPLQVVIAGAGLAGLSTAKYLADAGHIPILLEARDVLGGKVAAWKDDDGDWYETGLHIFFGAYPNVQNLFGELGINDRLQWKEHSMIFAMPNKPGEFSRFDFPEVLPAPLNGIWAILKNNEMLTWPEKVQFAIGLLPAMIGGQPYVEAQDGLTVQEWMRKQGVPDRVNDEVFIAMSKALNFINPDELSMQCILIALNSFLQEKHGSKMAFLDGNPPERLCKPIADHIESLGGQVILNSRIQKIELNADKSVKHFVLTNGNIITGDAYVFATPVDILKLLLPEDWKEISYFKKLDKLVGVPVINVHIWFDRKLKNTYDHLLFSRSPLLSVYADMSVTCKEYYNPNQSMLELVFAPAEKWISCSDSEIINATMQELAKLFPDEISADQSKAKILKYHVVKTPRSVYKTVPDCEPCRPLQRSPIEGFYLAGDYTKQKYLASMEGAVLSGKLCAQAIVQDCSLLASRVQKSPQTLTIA
Sequence of Hydrilla PDS Arg^304 Arginine (wildtype) (Q66PY0 1-580): as the sequence (Q66PY0 1-580 R304S) above, with S304R counted along it

One assay addresses Hydrilla PDS Arg^304 Arginine (wildtype) (Hydrilla verticillata, UniProt Q66PY0). As to the kind of experiment: Fluridone enzyme inhibition assay, non-His-tagged PDS (Table 1). Conditions: Arginine at 304 (reference). The format is biochemical. As to the method:
The expression constructs in Table 1 were derived from an original clone of the susceptible PDS gene from Hydrilla and then the Arg^304 was mutated to the listed amino acid. Expression was under the control of the lac promoter […] with the initiation codon of the LacZalpha-ccdB gene in the pCR4-TOPO vector (Invitrogen Inc., CA, Cat. #K4575-01).
(§1) All mutagenesis was performed, unless stated otherwise, using the TOPO-vector containing the wildtype (H4) PDS-sequence, which was extracted from an overnight culture with the Qiagen Plasmid Prep Kit as described above. The amount of the extracted plasmid was diluted to 10 ng/μl and used as template in a mutagenesis-procedure using the QuikChange Site-directed Mutagenesis Kit (Stratagene, Calif., #200518). The design of the mutagenesis-primers was conducted according to the manufacturers protocol to enable the specific change of Arg^304-codon to code for the desired amino acid. Primers (purchased from MWG-Biotech) and their introduced amino acid change are listed below with the changed codon underlined:
The reactions were performed according to the manufacturers protocol. […] Sequences were assembled and analyzed using Seqman. […]
Phytoene desaturase activity and its inhibition by herbicides was determined using an in vitro system using components derived from the in vivo production of phytoene and phytoene desaturase proteins. […]
Regarding Fluridone, the R/S is reported as 1.

A further assay addresses hydrilla PDS Arg^304 → Serine (Hydrilla verticillata, UniProt Q66PY0, R304S). As to the kind of experiment: Cross resistance to bleaching herbicides, in vitro PDS inhibition, non-His-tagged (Table 2). To be noted: Serine at 304; construct in frame with LacZalpha-ccdB, non-His-tagged; read-out: I50. The format is biochemical. As to the method:
The expression constructs in Table 2 were derived from an original clone of the susceptible PDS gene from Hydrilla and then the Arg^304 was mutated to the listed amino acid. Expression was under the control of the lac promoter but in frame with the initiation codon of the LacZalpha-ccdB gene in the pCR4-TOPO vector (Invitrogen Inc., CA, Cat. #K4575-01).
as §1
The reactions were performed according to the manufacturers protocol. Reactions were set up in MicroAmp-tubes on ice with 38 μl ddH2O, 5 μl 10× reaction buffer, 2 μl plasmid (10 ng/μl), 1.25 μl forward-mutagenesis primer (100 ng/μl), 1.25 μl of reverse mutagenesis primer (100 ng/μl), 1 μl dNTP-mix and 1 μl PfuTurboDNA polymerase (2.5 U/μl). The reactions were placed in a PE 9700 thermal cycler and heated to 95° C. for 30 sec followed by 12 rounds at 95° C. for 30 sec, 55° C. for 1 min and 68° C. for 12 min. The PCR was followed by a DpnI-digestion and transformation in XL1-Blue supercompetent cells as described in the manual. 4-6 resulting colonies were grown overnight in LB-medium with kanamycin and plasmid DNA was isolated as described above. The plasmid was used as template for sequencing with M13 and internal PDS-primers as described above on a LiCOR-system. Sequences were assembled and analyzed using Seqman. Introduced mutations were identified and plasmids carrying the desired mutation(s) were transferred into competent TOP10-cells, using the transformation protocol from the TOPO TA Cloning Kit. Resulting colonies were grown overnight in Wu-broth with kanamycin, aliquoted and stored at −80° C. until further use. 1 ml of Wu-cultures was used to start 1-L LB-cultures with kanamycin as described before, to express active PDS-enzyme for testing as described.
Phytoene desaturase activity and its inhibition by herbicides was determined using an in vitro system using components derived from the in vivo production of phytoene and phytoene desaturase proteins. All mutations described in Examples 3 and 4 were tested. […] The clones were used for the heterologous expression of Hydrilla-PDS-enzyme. In particular, bacterial cultures were grown from single colonies overnight in Wu-broth (6.27 g/L K2HPO4, 1.8 g/L KH2PO4, 0.5 g/L Na-citrate, 0.9 g/L (NH4)2SO4, 10 g/L tryptone, 5 g/L yeast extract, 10 g/L NaCl, 44 ml/L glycerol, 0.1 mM MgSO4, pH 7.2) with kanamycin. 1-mL was aliquoted in centrifuge tube and stored at −80° C. For expression, 1 L LB-medium with kanamycin was inoculated with 1-mL Wu-culture and grown for 24 h at 37° C. to stationary phase with shaking at 200 rpm. The cells were collected by centrifugation at 2000×g. All of the following steps were done at 4° C. unless otherwise noted. Active soluble PDS enzyme was extracted by lysing the transformed E. coli cells using a French Press at 20,000 psi in assay buffer consisting of 100 mM Tris-HCl, pH 7.2, 10 mM magnesium-chloride, 0.1 mM NADP, 0.1 mM FAD, 10 mM cysteine, 5 mM DTT, 1 mM aminocaproic acid, and 1 μg/ml leupeptin. The soluble fraction containing PDS activity was obtained by centrifugation for 10 min at 1200×g. After 24 h they were centrifuged down and used in PDS enzyme activity assays as described below.
For `CCC(Oc1ccc(F)c(C(F)(F)F)c1)C(=O)NCc1ccccc1` (stereo not drawn) [Beflubutamid], the IC50 amounted to 2.6 µM.

`O=C(Nc1ccc(F)cc1F)c1cccnc1Oc1cccc(C(F)(F)F)c1` [Diflufenican]: the IC50 came to 1.1 µM.

Turning to `O=C1C(Cl)C(CCl)CN1c1cccc(C(F)(F)F)c1` (stereo not drawn) [Fluorochloridone], the IC50 was determined as 23 µM.

For `CNC1=C(c2cccc(C(F)(F)F)c2)C(=O)C(c2ccccc2)O1` (stereo not drawn) [Flurtamone], the IC50 was found to be 5.9 µM.

`CNc1cnn(-c2cccc(C(F)(F)F)c2)c(=O)c1Cl` [Norflurazon]: the IC50 came out at 54.9 µM.
